Tests used:
Assay type in all cases: cell-based
[1] = system: Human dermal fibroblasts from Friedreich's Ataxia patients; experiment: Rescue of BSO-stressed FRDA fibroblasts (Calcein AM viability); conditions: BSO-stressed FRDA fibroblasts (GM04078), less than about 150 nM, read-out: EC50, protection against FRDA
Method: An initial screen was performed to identify compounds effective for the amelioration of redox disorders. Test samples, 4 reference compounds (Idebenone, decylubiquinone, Trolox and α-tocopherol acetate), and solvent controls were tested for their ability to rescue FRDA fibroblasts stressed by addition of L-buthionine-(S,R)-sulfoximine (BSO), as described in Jauslin et al., Hum. Mol. Genet. 11(24):3055 (2002), Jauslin et al., FASEB J. 17:1972-4 (2003), and International Patent Application WO 2004/003565. […] This specific BSO-mediated cell death can be prevented by administration of antioxidants or molecules involved in the antioxidant pathway, such as α-tocopherol, selenium, or small molecule glutathione peroxidase mimetics. However, antioxidants differ in their potency, i.e. the concentration at which they are able to rescue BSO-stressed FRDA fibroblasts.
MEM (a medium enriched in amino acids and vitamins, catalog no. 1-31F24-I) and Medium 199 (M199, catalog no. 1-21F22-I) with Earle's Balanced Salts, without phenol red, were purchased from Bioconcept. Fetal Calf Serum was obtained from PAA Laboratories. Basic fibroblast growth factor and epidermal growth factor were purchased from PeproTech. Penicillin-streptomycin-glutamine mix, L-buthionine (S,R)-sulfoximine, (+)-α-tocopherol acetate, decylubiquinone, and insulin from bovine pancreas were purchased from Sigma. Trolox (6-hydroxy-2,5,7,8-tetramethylchromane-2-carboxylic acid) was obtained from Fluka. Idebenone was obtained from Chemo Iberica. Calcein AM was purchased from Molecular Probes. Cell culture medium was made by combining 125 ml M199 EBS, 50 ml Fetal Calf Serum, 100 U/ml penicillin, 100 μg/ml streptomycin, 2 mM glutamine, 10 μg/ml insulin, 10 ng/ml EGF, and 10 ng/ml bFGF; MEM EBS was added to make the volume up to 500 ml. A 10 mM BSO solution was prepared by dissolving 444 mg BSO in 200 ml of medium with subsequent filter-sterilization. During the course of the experiments, this solution was stored at +4° C. The cells were obtained from the Coriell Cell Repositories (Camden, N.J.; repository number GM04078) and grown in 10 cm tissue culture plates. Every third day, they were split at a 1:3 ratio.
The test samples were supplied in 1.5 ml glass vials. The compounds were diluted with DMSO, ethanol or PBS to result in a 5 mM stock solution. Once dissolved, they were stored at −20° C. Reference antioxidants (Idebenone, decylubiquinone, α-tocopherol acetate and trolox) were dissolved in DMSO.
Test samples were screened according to the following protocol:
(§1) A culture with FRDA fibroblasts was started from a 1 ml vial with approximately 500,000 cells stored in liquid nitrogen. Cells were propagated in 10 cm cell culture dishes by splitting every third day in a ratio of 1:3 until nine plates were available. Once confluent, fibroblasts were harvested. For 54 micro titer plates (96 well-MTP) a total of 14.3 million cells (passage eight) were re-suspended in 480 ml medium, corresponding to 100 μl medium with 3,000 cells/well. The remaining cells were distributed in 10 cm cell culture plates (500,000 cells/plate) for propagation. The plates were incubated overnight at 37° C. in an atmosphere with 95% humidity and 5% CO2 to allow attachment of the cells to the culture plate.
(§2) MTP medium (243 μl) was added to a well of the microtiter plate. The test compounds were unfrozen, and 7.5 μl of a 5 mM stock solution was dissolved in the well containing 243 μl medium, resulting in a 150 μM master solution. Serial dilutions from the master solution were made. The period between the single dilution steps was kept as short as possible (generally less than 1 second).
Plates were kept overnight in the cell culture incubator. The next day, 10 μl of a 10 mM BSO solution were added to the wells, resulting in a 1 mM final BSO concentration. Forty-eight hours later, three plates were examined under a phase-contrast microscope to verify that the cells in the 0% control (wells E1-H1) were clearly dead. […]

[2] = system: human dermal fibroblasts from Parkinson's Disease patients; experiment: Rescue of BSO-stressed fibroblasts from Parkinson's Disease patients (screen as Example A); conditions: Fibroblast, BSO-stressed Parkinson's Disease fibroblasts (AG20439), less than about 150 nM, read-out: EC50, protection against PD
Method: as §1, §2
(§3) Plates were kept overnight in the cell culture incubator. The next day, 10 μl of a 10 mM BSO solution were added to the wells, resulting in a 1 mM final BSO concentration. Forty-eight hours later, three plates were examined under a phase-contrast microscope to verify that the cells in the 0% control (wells E1-H1) were clearly dead. The medium from all plates was discarded, and the remaining liquid was removed by gently tapping the plate inversed onto a paper towel.
(§4) 100 μl of PBS containing 1.2 μM Calcein AM were then added to each well. The plates were incubated for 50-70 minutes at room temperature. After that time the PBS was discarded, the plate gently tapped on a paper towel and fluorescence (excitation/emission wavelengths of 485 nm and 525 nm, respectively) was read on a Gemini fluorescence reader. Data was imported into Microsoft Excel (EXCEL is a registered trademark of Microsoft Corporation for a spreadsheet program) and used to calculate the EC50 concentration for each compound.
(§5) Compounds of the invention were screened as described in Example A, but substituting FRDA cells with Parkinson's Disease (PD) cells obtained from the Coriell Cell Repositories (Camden, N.J.; repository number AG20439). The compounds were tested for their ability to rescue human dermal fibroblasts from Parkinson's Disease patients from oxidative stress.

[3] = system: human dermal fibroblasts from LHON patients; experiment: Rescue of BSO-stressed fibroblasts from LHON patients (screen as Example A); conditions: Fibroblast, BSO-stressed LHON fibroblasts (GM03858), less than about 150 nM, read-out: EC50, protection against LHON
Method: as §1, §2, §3, §4
as §5, with “Leber's Hereditary Optic Neuropathy (LHON)” for “Parkinson's Disease (PD)”, “GM03858).” for “AG20439).”, “LHON” for “Parkinson's Disease”

[4] = system: human dermal fibroblasts from Huntington's patients; experiment: Rescue of BSO-stressed fibroblasts from Huntington's patients (screen as Example A); conditions: Fibroblast, BSO-stressed Huntington's fibroblasts (GM 04281), less than about 150 nM, read-out: EC50, protection against Huntington's
Method: as §1, §2, §3, §4
as §5, with “tested using the screen” for “screened”, “Huntington's” for “Parkinson's Disease (PD)”, “GM 04281).” for “AG20439).”, “Huntington's” for “Parkinson's Disease”

Measured: EC50

CC1=C(C)C(=O)C(CCNC(=O)NCc2ccc(Cl)cc2)=C(C)C1=O [1-(4-chlorobenzyl)-3-(2-(2,4,5-trimethyl-3,6-dioxocyclohexa-1,4-dienyl)ethyl)urea]
< 0.15 µM: [1] | [2] | [3] | [4]

CC1=C(C)C(=O)C(CCNC(=O)NCc2ccc(F)cc2)=C(C)C1=O [1-(4-Fluorobenzyl)-3-(2-(2,4,5-trimethyl-3,6-dioxocyclohexa-1,4-dienyl)ethyl)urea]
< 0.15 µM: [1] | [2] | [3] | [4]

COc1ccc(NC(=O)CCCC2=C(C)C(=O)C(C)=C(C)C2=O)cc1 [N-(4-methoxyphenyl)-4-(2,4,5-trimethyl-3,6-dioxocyclohexa-1,4-dienyl)butanamide]
< 0.15 µM: [1] | [2] | [3] | [4]

COc1ccc(S(=O)(=O)NCCC2=C(C)C(=O)C(C)=C(C)C2=O)cc1 [4-methoxy-N-(2-(2,4,5-trimethyl-3,6-dioxocyclohexa-1,4-dienyl)ethyl)benzenesulfonamide]
< 0.15 µM: [1] | [2] | [3] | [4]

CC1=C(C)C(=O)C(CCCC(=O)NC(C)(C)CO)=C(C)C1=O [N-(1-hydroxy-2-methylpropan-2-yl)-4-(2,4,5-trimethyl-3,6-dioxocyclohexa-1,4-dienyl)butanamide]
< 0.15 µM: [1] | [2]

CC1=C(C)C(=O)C(CCCC(=O)Nc2cccc(Cl)c2Cl)=C(C)C1=O [N-(2,3-dichlorophenyl)-4-(2,4,5-trimethyl-3,6-dioxocyclohexa-1,4-dienyl)butanamide]
< 0.15 µM: [1] | [2] | [3] | [4]

CC1=C(C)C(=O)C(CCNC(=O)Cc2ccc(Cl)cc2)=C(C)C1=O [2-(4-chlorophenyl)-N-(2-(2,4,5-trimethyl-3,6-dioxocyclohexa-1,4-dienyl)ethyl)acetamide]
< 0.15 µM: [1] | [2] | [3] | [4]

CC1=C(C)C(=O)C(CCNC(=O)NCc2ccncc2)=C(C)C1=O [1-(pyridin-4-ylmethyl)-3-(2-(2,4,5-trimethyl-3,6-dioxocyclohexa-1,4-dienyl)ethyl)urea]
< 0.15 µM: [1] | [2] | [3] | [4]

CC1=C(C)C(=O)C(CCCC(=O)Nc2cc(F)ccc2F)=C(C)C1=O [N-(2,5-difluorophenyl)-4-(2,4,5-trimethyl-3,6-dioxocyclohexa-1,4-dienyl)butanamide]
< 0.15 µM: [1] | [2] | [3] | [4]

CC1=C(C)C(=O)C(CCNC(=O)Cc2ccc(F)cc2)=C(C)C1=O [2-(4-fluorophenyl)-N-(2-(2,4,5-trimethyl-3,6-dioxocyclohexa-1,4-dienyl)ethyl)acetamide]
< 0.15 µM: [1] | [2] | [3] | [4]

CC1=C(C)C(=O)C(CCNS(=O)(=O)c2ccc(F)cc2)=C(C)C1=O [4-fluoro-N-(2-(2,4,5-trimethyl-3,6-dioxocyclohexa-1,4-dienyl)ethyl)benzenesulfonamide]
< 0.15 µM: [1] | [2] | [3] | [4]

CC1=C(C)C(=O)C(CCNC(=O)N2CCN(Cc3ccccc3)CC2)=C(C)C1=O [4-benzyl-N-(2-(2,4,5-trimethyl-3,6-dioxocyclohexa-1,4-dienyl)ethyl)piperazine-1-carboxamide]
< 0.15 µM: [1] | [2] | [3] | [4]

CC1=C(C)C(=O)C(CCCC(=O)Nc2ccccn2)=C(C)C1=O [N-(pyridin-2-yl)-4-(2,4,5-trimethyl-3,6-dioxocyclohexa-1,4-dienyl)butanamide]
< 0.15 µM: [1] | [2] | [3] | [4]

CC1=C(C)C(=O)C(CCCC(=O)Nc2cc(Cl)ccc2Cl)=C(C)C1=O [N-(2,5-dichlorophenyl)-4-(2,4,5-trimethyl-3,6-dioxocyclohexa-1,4-dienyl)butanamide]
< 0.15 µM: [1] | [2] | [3] | [4]

CC1=C(C)C(=O)C(CCNC(=O)c2ccc(Cl)cc2)=C(C)C1=O [4-chloro-N-(2-(2,4,5-trimethyl-3,6-dioxocyclohexa-1,4-dienyl)ethyl)benzamide]
< 0.15 µM: [1] | [2] | [3]

CC1=C(C)C(=O)C(CCCC(=O)Nc2ccncc2)=C(C)C1=O [N-(pyridin-4-yl)-4-(2,4,5-trimethyl-3,6-dioxocyclohexa-1,4-dienyl)butanamide]
< 0.15 µM: [1] | [2] | [3] | [4]

CC1=C(C)C(=O)C(CCNC(=O)c2ccc(F)cc2)=C(C)C1=O [4-fluoro-N-(2-(2,4,5-trimethyl-3,6-dioxocyclohexa-1,4-dienyl)ethyl)benzamide]
< 0.15 µM: [1] | [2] | [3]

CC1=C(CCNS(=O)(=O)c2ccc(F)cc2)C(=O)C(c2ccc(Cl)cc2)=C(C)C1=O [N-(2-(5-(4-chlorophenyl)-2,4-dimethyl-3,6-dioxocyclohexa-1,4-dienyl)ethyl)-4-fluorobenzenesulfonamide]
< 0.15 µM: [1] | [2] | [4]

CC1=C(C)C(=O)C(CCC(C)(C)O)=C(CCNC(=O)c2ccccc2)C1=O [N-(2-(2-(3-hydroxy-3-methylbutyl)-4,5-dimethyl-3,6-dioxocyclohexa-1,4-dienyl)ethyl)-benzamide]
< 0.15 µM: [1] | [3] | [4]

CC1=C(C)C(=O)C(CCNC(=O)c2ccc(C(F)(F)F)cc2)=C(C)C1=O [4-(Trifluoromethyl)-N-(2-(2,4,5-trimethyl-3,6-dioxocyclohexa-1,4-dienyl)ethyl)benzamide]
< 0.15 µM: [1] | [2] | [3]

— patent US9090576B2, “2-substituted-p-quinone derivatives for treatment of oxidative stress diseases” (Edison Pharmaceuticals, Inc., priority 2008, dated 2015)
